Measurements from patent US8753691B2, “Antiviral colloidal silver composition” (priority 1999, dated 2014).

Test system: Mycobacterium bovis BCG (TMC 1028)
Format: cell-based

SMILES: Oc1ccccc1 [phenol]
- log reduction (phenol resistance): ≈ 1.81
